Laboratory results reported in ChEMBL document CHEMBL5579824, “Novel Hsp90-Targeting PROTACs: Enhanced synergy with cisplatin in combination therapy of cervical cancer” (Eur J Med Chem, 2024).
Calls of active or inactive are those of the source. No cut-off for these calls is given here.

How the values were obtained:
SiHa [1] = test: Synergistic antiproliferative activity against human SiHa cells assessed as combination index at 1 uM incubated for 72 hrs in presence of 31.62 uM cisplatin by CCK-8 assay; type: functional
SiHa [2] = test: Synergistic antiproliferative activity against human SiHa cells assessed as combination index at 5 uM incubated for 72 hrs in presence of 31.62 uM cisplatin by CCK-8 assay; type: functional
SiHa [3] = test: Synergistic antiproliferative activity against human SiHa cells assessed as combination index at 0.05 uM incubated for 72 hrs in presence of 10 uM cisplatin by CCK-8 assay; type: functional
SiHa [4] = test: Synergistic antiproliferative activity against human SiHa cells assessed as combination index at 0.5 uM incubated for 72 hrs in presence of 0.01 uM cisplatin by CCK-8 assay; type: functional
[5] = molecular target: T1, Protein cereblon/Heat shock protein HSP 90-alpha/Heat shock protein HSP 90-beta (Homo sapiens) (UniProt P07900+P08238+Q96SW2); test: Protac activity at CRBN/Hsp90 in human SiHa cells assessed as induction of Hsp90 degradation at 0.05 uM incubated for 2 hrs in presence of MG-132 by Western blot analysis; type: cell-based
SiHa [6] = test: Synergistic antiproliferative activity against human SiHa cells assessed as combination index at 0.1 uM incubated for 72 hrs in presence of 0.03 uM cisplatin by CCK-8 assay; type: functional
SiHa [7] = test: Synergistic antiproliferative activity against human SiHa cells assessed as combination index at 0.1 uM incubated for 72 hrs in presence of 31.62 uM cisplatin by CCK-8 assay; type: functional
SiHa [8] = test: Synergistic antiproliferative activity against human SiHa cells assessed as combination index at 10 uM incubated for 72 hrs in presence of 3.16 uM cisplatin by CCK-8 assay; type: functional
SiHa [9] = test: Induction of apoptosis in human SiHa cells assessed as early apoptotic cells at 10 uM incubated after 48 hrs by annexin V-FITC/PI staining based flow cytometry (reference value: 2.05 %); type: functional
[10] = molecular target: T1, Protein cereblon/Heat shock protein HSP 90-alpha/Heat shock protein HSP 90-beta (Homo sapiens); test: Protac activity at CRBN/Hsp90 in human SiHa cells assessed as induction of Hsp90 degradation at 1 uM incubated for 36 hrs by Western blot analysis; type: cell-based
SiHa [11] = test: Induction of apoptosis in human SiHa cells assessed as viable cells at 10 uM incubated after 48 hrs by annexin V-FITC/PI staining based flow cytometry (reference value: 90.4 %); type: functional; conditions: read-out: Activity
SiHa [12] = test: Induction of cell cycle arrest in human SiHa cells assessed as accumulation of cells at S pahse at 1 uM incubated after 48 hrs by PI staining based flow cytometry (reference value: 8.51 %); type: functional
SiHa [13] = test: Antitumor activity against human SiHa cells xenografted in BALB/c nude mouse assessed as tumor growth inhibition at 2 mg/kg, ip; type: functional, organism-based
SiHa [14] = test: Induction of cell cycle arrest in human SiHa cells assessed as accumulation of cells at S pahse at 0.05 uM incubated after 48 hrs by PI staining based flow cytometry (reference value: 8.51 %); type: functional
SiHa [15] = test: Synergistic antiproliferative activity against human SiHa cells assessed as combination index at 0.5 uM incubated for 72 hrs in presence of 3.16 uM cisplatin by CCK-8 assay; type: functional
SiHa [16] = test: Induction of apoptosis in human SiHa cells assessed as necrotic cells at 2.5 uM incubated after 48 hrs by annexin V-FITC/PI staining based flow cytometry (reference value: 0.08 %); type: functional
[17] = molecular target: T1, Protein cereblon/Heat shock protein HSP 90-alpha/Heat shock protein HSP 90-beta (Homo sapiens); test: Protac activity at CRBN/Hsp90 in human SiHa cells assessed as induction of Hsp90 degradation at 0.05 uM incubated for 2 hrs in presence of lenalidomide by Western blot analysis; type: cell-based
SiHa [18] = test: Induction of cell cycle arrest in human SiHa cells assessed as accumulation of cells at S pahse at 2.5 uM incubated after 48 hrs by PI staining based flow cytometry (reference value: 8.51 %); type: functional
SiHa [19] = test: Synergistic antiproliferative activity against human SiHa cells assessed as combination index at 0.75 uM incubated for 72 hrs in presence of 3.16 uM cisplatin by CCK-8 assay; type: functional
SiHa [20] = test: Induction of apoptosis in human SiHa cells assessed as viable cells at 2.5 uM incubated after 48 hrs by annexin V-FITC/PI staining based flow cytometry (reference value: 90.4 %); type: functional; conditions: read-out: Activity
SiHa [21] = test: Synergistic antiproliferative activity against human SiHa cells assessed as combination index at 10 uM incubated for 72 hrs in presence of 1 uM cisplatin by CCK-8 assay; type: functional
SiHa [22] = test: Synergistic antiproliferative activity against human SiHa cells assessed as combination index at 1 uM incubated for 72 hrs in presence of 0.03 uM cisplatin by CCK-8 assay; type: functional
SiHa [23] = test: Induction of apoptosis in human SiHa cells assessed as late apoptotic cells at 2.5 uM incubated after 48 hrs by annexin V-FITC/PI staining based flow cytometry (reference value: 6.93 %); type: functional
SiHa [24] = test: Synergistic antiproliferative activity against human SiHa cells assessed as combination index at 0.1 uM incubated for 72 hrs in presence of 0.01 uM cisplatin by CCK-8 assay; type: functional
SiHa [25] = test: Synergistic antiproliferative activity against human SiHa cells assessed as combination index at 0.75 uM incubated for 72 hrs in presence of 31.62 uM cisplatin by CCK-8 assay; type: functional
SiHa [26] = test: Synergistic antiproliferative activity against human SiHa cells assessed as combination index at 0.5 uM incubated for 72 hrs in presence of 0.1 uM cisplatin by CCK-8 assay; type: functional
SiHa [27] = test: Synergistic antiproliferative activity against human SiHa cells assessed as combination index at 0.1 uM incubated for 72 hrs in presence of 0.1 uM cisplatin by CCK-8 assay; type: functional
SiHa [28] = test: Induction of apoptosis in human SiHa cells assessed as viable cells at 1 uM incubated after 48 hrs by annexin V-FITC/PI staining based flow cytometry (reference value: 90.4 %); type: functional; conditions: read-out: Activity
SiHa [29] = test: Synergistic antiproliferative activity against human SiHa cells assessed as combination index at 0.75 uM incubated for 72 hrs in presence of 10 uM cisplatin by CCK-8 assay; type: functional
SiHa [30] = test: Induction of apoptosis in human SiHa cells assessed as late apoptotic cells at 10 uM incubated after 48 hrs by annexin V-FITC/PI staining based flow cytometry (reference value: 6.93 %); type: functional
SiHa [31] = test: Synergistic antiproliferative activity against human SiHa cells assessed as combination index at 5 uM incubated for 72 hrs in presence of 0.03 uM cisplatin by CCK-8 assay; type: functional
SiHa [32] = test: Synergistic antiproliferative activity against human SiHa cells assessed as combination index at 0.75 uM incubated for 72 hrs in presence of 0.03 uM cisplatin by CCK-8 assay; type: functional
SiHa [33] = test: Synergistic antiproliferative activity against human SiHa cells assessed as combination index at 0.05 uM incubated for 72 hrs in presence of 0.01 uM cisplatin by CCK-8 assay; type: functional
[34] = molecular target: T1, Protein cereblon/Heat shock protein HSP 90-alpha/Heat shock protein HSP 90-beta (Homo sapiens); test: Protac activity at CRBN/Hsp90 in human SiHa cells assessed as induction of Hsp90 degradation at 0.05 uM incubated for 10 hrs by Western blot analysis; type: cell-based

## CC1(C)CC(=O)c2c(C(F)(F)F)nn(-c3ccc(C(N)=O)c(N[C@H]4CC[C@H](OC(=O)CNC(=O)CCCCCCCNc5cccc6c5CN(C5CCC(=O)NC5=O)C6=O)CC4)c3)c2C1 (some centres undefined)
SiHa [1]
  CI: 0.27
SiHa [2]
  CI: 0.53
SiHa [3]
  CI: 1.26
SiHa [4]
  CI: 0.18
[5]
  Activity: inactive
SiHa [6]
  CI: 0.49
SiHa [7]
  CI: 0.24
SiHa [8]
  CI: 1.45
SiHa [9]
  Activity: 20.83%
[10]
  Activity: inactive
SiHa [11]
  viability at 10 µM: 51.9%
SiHa [12]
  Activity: 13.56%
SiHa [13]
  TGI: Active
SiHa [14]
  Activity: 10.84%
SiHa [15]
  CI: 0.14
SiHa [16]
  Activity: 0.68%
[17]
  Activity: inactive
SiHa [18]
  Activity: 21.18%
SiHa [19]
  CI: 0.17
SiHa [20]
  viability at 2.5 µM: 55.3%
SiHa [21]
  CI: 1.78
SiHa [22]
  CI: 0.22
SiHa [23]
  Activity: 22.71%
SiHa [24]
  CI: 3.04
SiHa [25]
  CI: 0.32
SiHa [26]
  CI: 0.13
SiHa [27]
  CI: 0.49
SiHa [28]
  viability at 1 µM: 59%
SiHa [29]
  CI: 0.21
SiHa [30]
  Activity: 29.96%
SiHa [31]
  CI: 1.02
SiHa [32]
  CI: 0.19
SiHa [33]
  CI: 1.83
[34]
  Activity: Active
